# Measured values reported in US20050204407A1, “Methods for identifying and developing compounds that interact with voltage-gated potassium channels of the kv4 family” (priority 2002, published 2005).
# Key:
# [1] = test system: hKv4.3 expressing C. elegans strain UG 1611; assay: Pharynx pumping rate of hKv4.3 expressing exp-2 strain UG 1611; format: in vivo; set-up: Change observed (pharynx pumping rate): dose or concentration left out as unconfirmed
# Procedure: The influence of 4-aminopyridine, a known general antagonist of voltage-gated potassium channel, on the pharynx pumping rate of the hKv4.3 expressing C. elegans strain UG 1611 (Example IV) was determined as follows.
# The nematodes were cultivated to L4 stage on an agar plate, and then kept overnight at 20° C. to reach the adult stage. […] After 3 hours at 20° C., the number of pharynx “pumps” (contractions) per 30 seconds were determined visually using a stopwatch. As a comparison, the influence of 4-aminopyridine on the original exp-2 background was also determined, in essentially the same manner.
# [2] = test system: hKv4.3-expressing pha-1 strain UG 1598; assay: Electropharyngeogram (EPG) of hKv4.3-expressing pha-1 strain UG 1598; format: in vivo, C. elegans; conditions: 215 mM
# Procedure: An electropharyngeogram of the human Kv4.3 expressing strain UG 1547 was recorded using an Axopatch-1D amplifier (Axon instruments), essentially as described by Raizen and Avery, supra, and is shown in FIG. 1. For comparison, reference is made to the EPG's for wild-type and exp-2 shown by Davis, Dent and Avery, Worm Breeders Gazette 14(4); 72 (1996), as well as the EPG's for wild-type shown in Raizen and Avery.
# The influence of 4-aminopyridine on the EPG of a hKv4.3-expressing strain was studied using the hKv4.3-expressing pha-1 strain UG 1598 of Example III. As mentioned in Example VI, exposing this strain UG 1598 to 4-aminopyridine leads to a reduction of pharynx pumping.
# The EPG's for UG 1598 (using 4 pharynxes) were recorded essentially as described in Example XII. The EPG's of UG 1598 without 4-aminopyridine were recorded during a period of 5 minutes, upon which the pharynxes were exposed to 215 mM 4-aminopyridine, and the EPG's were further recorded during a 5 minute period. The EPG's with and without the presence of 4-aminopyridine were then compared with each other and to the EPG for wild-type (see the references mentioned in Example XII).
# The number of “Kv4.3-like” AP's and the number of “normal” AP's during the 5 minute recording period were determined/counted from the recorded EPG's.
# After exposure to the 4-aminopyridine, the number of “Kv4.3-like” AP's and the number of “normal” AP's during the 5 minute recording period were again determined/counted from the EPG recording.
# exp-2 background [3] = assay: Pharynx pumping rate of original exp-2 background (comparison); format: in vivo, C. elegans; conditions: 2 mM, 3 hours at 20° C., FIG. 5
# Procedure: The nematodes were cultivated to L4 stage on an agar plate, and then kept overnight at 20° C. to reach the adult stage. The worms where then transferred to agar plates containing 2 mM 4-aminopyridine in DMSO. After 3 hours at 20° C., the number of pharynx “pumps” (contractions) per 30 seconds were determined visually using a stopwatch. As a comparison, the influence of 4-aminopyridine on the original exp-2 background was also determined, in essentially the same manner.
# [4] = test system: hKv4.3 expressing C. elegans strain UG 1598; assay: Pharynx pumping rate of hKv4.3 expressing pha-1 strain UG 1598; format: in vivo
# Procedure: The influence of 4-aminopyridine, a known general antagonist of voltage-gated potassium channel, on the pharynx pumping rate of the hKv4.3 expressing C. elegans strain UG 1598 (Example III) was determined as follows.
# (§1) The nematodes were cultivated to L4 stage on an agar plate, and then kept overnight at 20° C. to reach the adult stage. The worms where then transferred to agar plates containing 0,5 mM 4-aminopyridine in DMSO. After 3 hours at 20° C., the number of pharynx “pumps” (contractions) per 30 seconds were determined visually using a stopwatch. As a comparison, the influence of 4-aminopyridine on an N2 background was also determined, in essentially the same manner.
# [5] = test system: hKv4.3 expressing C. elegans strain UG 1611; assay: Drinking assay (uptake of Calcein AM) in hKv4.3 expressing exp-2 strain UG 1611; format: in vivo; conditions: 0.3 mM, exp-2 without compound = 100%, UG 1611 without compound 114%
# Text: (§2) The hKv4.3 expressing C. elegans strain UG 1611 (Example IV) was investigated for drinking behaviour by determining the uptake over time of the fluorescent dye Calcein AM, essentially as described in Examples 2 and 3 of the International application PCT/IB00/00575 by Applicant, using 96 well plates containing 100 nematodes/well. As a comparison, the exp-2(sa26as1426)V background was used.
# (§3) The influence of mM 4-aminopyridine, a known general antagonist of voltage-gated potassium channel, on drinking behaviour of the hKv4.3 expressing C. elegans strain UG 1611 (Example IV) was determined by measuring the uptake of the fluorescent dye Calcein AM with and without the presence of 0.3 mM 4aminopyridine, essentially as described in Examples 2 and 3 of the International application PCT/IB00/00575 by Applicant.
# exp-2 background [6] = assay: Drinking assay (uptake of Calcein AM) in exp-2 background; format: in vivo, C. elegans; conditions: 0.3 mM, exp-2 without compound = 100%
# Text: as §2, §3
# N2 background = assay: Pharynx pumping rate of N2 background (comparison); format: in vivo, C. elegans; conditions: 0,5 mM, 3 hours at 20° C., FIG. 4
# Procedure: as §1
# unc-119; hKv4.3 = assay: Pharynx pumping rate of unc-119; hKv4.3 nematode; format: in vivo, C. elegans; conditions: 500 mM, 3 hrs
# [7] = UG 1598, compared to UG1598 without compound
smiles,measurement,setting,value
Nc1ccncc1 [4-aminopyridine],Change observed (pharynx pumping rate),"[1]; exp-2, hKv4.3, 3 hrs",(small) decrease
same,Influence on pharynx pumping rate (pumps per 30 seconds),"[1]; strain UG 1611, 2 mM in agar plates, 3 hours at 20° C., FIG. 5",decreases
same,"Number of ""normal"" APs during the 5 minute recording period","[2]; UG 1598, 4 pharynxes, before adding 14+/−12, P<0.0161",64+/−9
same,"Relative number of ""Kv4.3 like"" AP's in EPG",[2]; [7],significant decrease
same,"Relative number of ""normal"" AP's in EPG",[2]; [7],corresponding increase
same,Influence on pharynx pumping rate (pumps per 30 seconds),exp-2 background [3],very little influence
same,Change observed (pharynx pumping rate),"[4]; pha-1, hKv4.3, 0,5 mM, 3 hrs",increase in
same,Influence on pharynx pumping rate (pumps per 30 seconds),"[4]; strain UG 1598, 0,5 mM in agar plates, 3 hours at 20° C., FIG. 4",increases
same,Pharynx pumping (as restated in Example XIII),"[4]; strain UG 1598, refers to Example VI",reduction
same,Uptake of fluorescent marker Calcein AM (drinking),[5],109%
same,Uptake of fluorescent marker Calcein AM (drinking),exp-2 background [6],103%
same,Influence on pharynx pumping rate (pumps per 30 seconds),N2 background,very little influence
same,Change observed (pharynx pumping rate),unc-119; hKv4.3,increase in
